Assay results as given in PMC5656713 (Advances in Therapy, 2017).
Like-named read-outs stand apart in the source and are kept apart here.

Legend:
serum cortisol = test: Fasting serum cortisol during mifepristone alone and plus ketoconazole; type: in vivo, human; conditions: day 13, predose, after mifepristone 600 mg alone
plasma ACTH = test: Fasting plasma ACTH during mifepristone alone and plus ketoconazole; type: in vivo, human; conditions: day 13, predose, after mifepristone 600 mg alone
Safety and tolerability = type: in vivo, human
[1] = with concomitant ketoconazole 200 mg twice daily vs mifepristone 600 mg alone
glucocorticoid receptor = conditions: cited from earlier work
[2] = cited from earlier work
clinical [3] = conditions: male, human, in vivo, 600 mg
[4] = male, human, in vivo
clinical [5] = conditions: male, human, in vivo

| increase in systemic exposure based on GMR, AUC0–24 [1] [%] | half-life (clinical [3]) [h] | Mean predose trough concentrations [4] [ng/mL] | Tmax (clinical [5]; 200 mg) [h] | AUC(0-t) (clinical [5]; AUC (AUC0–12) GLSM) [ng·h/mL] | Compound | Mean serum cortisol (serum cortisol) [µg/dL] | Mean ACTH (plasma ACTH) [pg/mL] | subjects with at least one treatment-emergent AE (Safety and tolerability; coadministration of mifepristone and ketoconazole (period 2), 8/14) [%] | subjects with at least one treatment-emergent AE (Safety and tolerability; mifepristone alone (period 1), 9/16) [%] | serious AEs (Safety and tolerability; whole study, mifepristone alone and plus ketoconazole) | affinity to the glucocorticoid receptor compared with 100% for mifepristone (glucocorticoid receptor) [%] | half-life [2] |
| --- | --- | --- | --- | --- | --- | --- | --- | --- | --- | --- | --- | --- |
| 38 | > 64 |  |  |  | CC#C[C@]1(O)CC[C@H]2[C@@H]3CCC4=CC(=O)CCC4=C3[C@@H](c3ccc(N(C)C)cc3)C[C@@]21C [Mifepristone] | 41.9 | 148 | 57.1 | 56.3 | No serious AEs | 100 | ~ 85 h |
|  |  | 1353.07 to 1615.64 | 3 | 37700 | CC(=O)N1CCN(c2ccc(OCC3COC(Cn4ccnc4)(c4ccc(Cl)cc4Cl)O3)cc2)CC1 (stereo not drawn) [Ketoconazole] |  |  |  |  |  |  |  |
